What all share (type): in vivo, mice
Experiment [1] relates to motor function of injured hindlimb. The experiment is described as follows: Toe spreading reflex (motor function recovery) after sciatic nerve crush. The protocol:
(§1) Adult male Fmn2^−/− mice (8-12 weeks old) and their age-matched WT littermates, or adult male C57BL/6 mice (for whole-body X-ray, AAV2/9-Fmn2-shRNA and metaxalone experiments) were trained and habituated one week before the sciatic nerve crush injury. After three independent training sessions (30 minutes per session with two days break), baseline values were taken, and sciatic nerve crush injury were performed one day after the baseline recordings. Function recovery was monitored for 30 days. On day 3 after the sciatic nerve crush, we first perform pinprick assay and followed by motor function assays every other day in a sequential manner (toe spreading, grip strength, and sciatic functional index) with 30 mins apart from each test. Animal behavioural tests were done blinded to the surgery and genotypes.
To assess toe spreading reflex following PNI, mice were covered by a piece of cotton, lifted up by the tails, and uncovered their hindlimbs for assessment. Toe spreading reflex was scored as follow: 0 for no spreading, 1 for intermediate spreading with all toes separated for less than 2 seconds, and 2 for full spreading with all toes completely and widely spread, and sustained for at least two seconds. Mice were scored only when a full response was observed on the contralateral side (uninjured hindlimbs). Mice were assessed twice with 30-minute time interval in between.
(§2) To examine the therapeutic potential of metaxalone, adult mice received daily intraperitoneal injection of metaxalone at 10 mg/kg immediately after injury for 21 consecutive days (i.e., metaxalone treatment) or delaying daily intraperitoneal injection of metaxalone at 10 mg/kg to 24 hours post-injury for 20 consecutive days (i.e., delayed metaxalone treatment), and all metaxalone treatments ended on day 21 post-injury. The mice were then subjected to sensory and motor function recovery tests and weekly EMG recordings for 28 days post-injury.

Experiment [2] concerns sensory function of injured hindlimb. The experiment can be described thus: Pinprick assay (sensory function recovery) after sciatic nerve crush. The protocol: as §1
Mice were placed singly in small wire-mesh cages for 30-minutes habituation, an insect pin (Fine Science Tools) were applied to the lateral plantar surface of the ipsilateral hindlimb from toe to heel. The lateral planar surface was divided into 5 different areas, from the most distal toe (score=5) to the heel (score=1). The mouse was scored for that area if a brisk withdrawal response of hind paw was observed. The mouse was scored 0 if no withdrawal responses were observed after insect pin was applied to all 5 areas. Saphenous innervated area of the same hindlimb was tested as a positive control if there was no positive response from these five areas. Two rounds of pinprick assay were performed (with a 30-minute time interval) in each mouse to confirm the score.
as §2

Experiment [3] concerns regenerating sensory axons of the injured sciatic nerve. The experiment is described as follows: Sciatic nerve pinch test after sciatic nerve crush injury. To be noted: 3 days post-injury. The protocol:
Sciatic nerve crush or transection injury was performed in anesthetized adult male C57BL/6 or Fmn2^−/− mice (8-12 weeks old) as previously described. Briefly, the left sciatic nerve was exposed at mid-thigh level. For crush injury, the exposed nerve was crushed with smooth forceps (Dumont #5/45 Forceps, Fine Science Tools) at the sciatic notch for 15 seconds. For sciatic nerve transection, an epineural suture was first made at the level of external rotator muscle, just distal to the sciatic notch. The exposed nerve was then transected using a pair of ophthalmic microscissors just distal to the suture. After injury, the overlying muscle and skin were sutured using a 5-0 suture (Ethilon), and the mice were allowed to recover on a heated pad, and returned to their home cages after recovery. The surgeon was blinded to the genotypes and treatments.
For in vivo gene silencing of Fmn2 and/or Hdac5 in DRGs, AAV2/9-Fmn2-shRNA and AAV2/9-Hdac5-shRNA at a titer of 5×10^12 vg/mL (OBIO Technology) were injected into the sciatic nerve directly through a glass micropipette using a microinjector (Harvard Apparatus) two weeks before sciatic nerve crush injury. The mice were then subjected to sciatic nerve crush injury and sciatic nerve pinch test (FIG. 4) and animal behavioural assessment (FIG. 15). The expression of shRNAs was under the control of the U6 promoter, and the expression of the reporter gene eGFP was under the control of the CAG promoter. AAV2/9-scr-shRNA (Packgene) was used as a negative control (see FIG. 22 for the shRNA sequences). On a separate batch of animals, the knockdown efficiency in DRGs was assessed by Western blot analysis in AAV2-Fmn2-shRNA and AAV2-Hdac5-shRNA mice two weeks after the AAV injection (FIGS. S8B and S9). […]
Sciatic nerve pinch test was performed in the ipsilateral side 3 days after sciatic nerve crush injury. […] The distance (in mm) representing the length of axonal regrowth was recorded from the crushed site to the most distal point of sciatic nerve whereas initial withdrawal reflex was observed after pinching. […]

A further experiment has as its system hindlimb muscle strength. The experiment can be described thus: Hindlimb grip strength measurement after sciatic nerve crush. The settings on record: from day 11 to 23. The protocol: as §1
Muscle strength from hindlimbs were measured using a grip strength meter (BIO-GS3, Bioseb). To measure the grip strength of both hindlimbs, their hindlimbs were positioned to grip a metal T-bar connected to the grip strength meter, while their forelimbs were rested on a plastic bar. The mice were then gently pulled off from the T-bar. The values at which the mouse left the T-bar reflected the grip strength in grams. The average grip strength was taken from at least 5 consecutive grip strength measurements per animal. […]

The mark [4] stands for this setting: 10 mg/kg intraperitoneally delayed to 24 hours post-injury.
Where [5] appears, read: 10 mg/kg intraperitoneally immediately after PNI.

For `Cc1cc(C)cc(OCC2CNC(=O)O2)c1` (centres unmarked) [metaxalone], in experiment [1] (setting [4]), the “additional time vs metaxalone-treated mice to recover 50% and to fully regain toe spreading reflex, delayed treatment” value was determined as 1 days. Besides, in experiment [1] (setting [5]), the “time to fully regain toe spreading reflex” value is on record as 19 days and the “time to recover 50% of toe spreading reflex (reaching score 1)” value was found to be 14 days. Moreover, the “initial response to pinprick stimuli (reaching score 1), delayed treatment” value in experiment [2] (10 mg/kg intraperitoneally daily, delayed to 24 hours post-injury, 20 days) came out at 10 day post-injury. Further, the “full sensory pinprick response regained earlier than vehicle controls, delayed treatment” value in experiment [2] (setting [4]) stood at 2 days. The “full sensory pinprick response regained earlier than vehicle controls” value in experiment [2] (setting [5]) was found to be 4 days. Moreover, the “initial response to pinprick stimuli (reaching score 1)” value in experiment [2] (10 mg/kg intraperitoneally once a day immediately after PNI for 21 days) was found to be 9 day post-injury. In addition, in experiment [3] (0.25 μg/μl to the site of injury immediately after crush, twice per day, 3 consecutive days), the “distal sensory axonal regrowth (length)” value worked out at 4.82±0.32 mm. Also, the “axonal regrowth (length), delayed treatment” value in experiment [3] (treatment delayed by 24 hours, 0.25 μg/μl to site of injury for 2 consecutive days) is on record as 4.50±0.25 mm. Moreover, the “hindlimb grip strength recovery vs controls” value in the experiment on hindlimb muscle strength (immediate treatment 10 mg/kg) was “significantly higher”. In addition, the “hindlimb grip strength recovery vs controls, delayed treatment” value with hindlimb muscle strength (treatment delayed 24 hours, 10 mg/kg) is “significantly higher”.

For the origin of these results see patent US20250122253A1, “REGULATING MICROTUBULE DYNAMICS AS A THERAPEUTIC TARGET FOR NERVE REPAIR” (City University of Hong Kong, priority 2023, published 2025).
